Results on three compounds are retold here after patent publication US4794118A, “1,4-benzodioxane derivatives” (Eisai Co., Ltd., priority 1985, dated 1988).

Each structure is given as a SMILES string.

Data set [1] concerns arterial and venous systems. The data set can be described thus: Effects on the arterial and venous systems in anesthetized open-chest dogs. In kind it is in vivo, mongrel dogs. The conditions noted are these: for Max. change in mean blood pressure at diastole, Aortic / Max. change in mean blood pressure at diastole, Pulmonary: anesthetized open-chest dogs. The procedure: Effects on the arterial and venous systems in anesthetized open-chest dogs
Mongrel dogs of either sex, weighing 12-16 kg were subjected to inhalation anesthesia with enflurane under artificial respiration. The dogs were subjected to thoracotomy through the fourth right intercostal wall and catheters were inserted into the thoracic aorta and right pulmonary artery. The aortic and pulmonary blood pressures were measured by means of cathether tip-type piezoelectric transducers.
Test compounds were cumulatively administered with intervals of 30 minutes either intravenously or intraduodenally through catheters placed in the left femoral vein and duodenum.

Another data set is described as follows: Acute toxicity in mice. The conditions noted are these: mouse, in vivo. Here is the method:
Acute toxicity in mice was investigated with respect to 8-hydroxy-2-nitratomethyl-7-nitro-1,4-benzodioxane. […] A similar experiment was also conducted with an intravenous administration of NG.

In another data set the test system is coronary blood flow. The data set can be described thus: Effects on the coronary blood flow in anesthetized open-chest dogs. It is filed as in vivo, mongrel dogs. The note with it: for Max. increase in coronary blood flow: anesthetized open-chest dogs. The procedure: Effects on the coronary blood flow in anesthetized open-chest dogs
Mongrel dogs of either sex weighing 9-14 kg were subjected to inhalation anesthesia with enflurane under artificial respiration. […] Test compounds were administered cumulatively at intervals of 10 minutes through a catheter inserted into the left femoral vein.

Data set [2] concerns spontaneously hypertensive rats (SHR). The data set can be described thus: Hypotensive effects in spontaneously hypertensive rats (SHR) under anesthesia. In kind it is in vivo, rat (SHR). The note with it: anesthetized SHR. The procedure:
Hypotensive effects in spontaneously hypertensive rats (SHR) under anesthesia
Male SHR of 20 weeks of age or older were anesthetized with sodium pentobarbital (40 mg/kg, i.p.). The carotid artery and jugular vein were cannulated. Blood pressure was recorded from the carotid artery on a polygraph via a pressure transducer. Test compounds were dissolved in a solution containing 0.9% NaCl and 1% Tween 80 and administered either intravenously into the jugular vein or intraduodenally through a cannula inserted into the duodenum.
As a representative of this invention, compound A (8-hydroxy-2-nitrato-methyl-7-nitro-1,4-benzodioxane) was chosen.

Setting [3] is: intravenous administration, dogs.
Setting [4] is: intravenous, dogs, vs nicorandil.

Regarding `O=C(NCCO[N+](=O)[O-])c1cccnc1` [Nicorandil, N-[2-(nitroxy)ethyl]-3-pyridinecarboxamide], the “Max. change in mean blood pressure at diastole, Aortic” value (from here on “Max. change … Aortic”) in data set [1] (i.v, 30 μg/Kg) is given as -10.3 mm/Hg; in data set [1] (i.v, 100 μg/Kg) it was -18.6 mm/Hg; in data set [1] (i.v, 300 μg/Kg), -50.9 mm/Hg. Moreover, the “Max. change in mean blood pressure at diastole, Pulmonary” value (“Max. change … Pulmonary” for short) in data set [1] (i.v, 30 μg/Kg) is listed as -1 mm/Hg; in data set [1] (i.v, 100 μg/Kg), -1.5 mm/Hg; in data set [1] (i.v, 300 μg/Kg), -2.1 mm/Hg.

`O=[N+]([O-])OCC(CO[N+](=O)[O-])O[N+](=O)[O-]` [NG, nitroglycerin]: the LD50 in the data set “Acute toxicity in mice” (intravenous administration) was 10 to 15 mg/kg. Besides, the “Max. increase in coronary blood flow” value in the data set with coronary blood flow (3 μg/Kg, intravenous) turned out to be 31.3%; in the data set with coronary blood flow (10 μg/Kg, intravenous), 79.7%; in the data set on coronary blood flow (30 μg/Kg, intravenous), 165.0%. Besides, the “Max. change … Aortic” value is on record as -1.7 mm/Hg in data set [1] (i.d, 30 μg/Kg); -3.3 mm/Hg in data set [1] (i.d, 100 μg/Kg); -10 mm/Hg in data set [1] (i.d, 300 μg/Kg); -21.7 mm/Hg in data set [1] (i.v, 3 μg/Kg); -33.3 mm/Hg in data set [1] (i.v, 10 μg/Kg); -40.0 mm/Hg in data set [1] (i.v, 30 μg/Kg). Besides, the “Max. change … Pulmonary” value in data set [1] (i.d, 30 μg/Kg) was -0.7 mm/Hg; in data set [1] (i.d, 100 μg/Kg), -1 mm/Hg; in data set [1] (i.d, 300 μg/Kg), -1.7 mm/Hg; in data set [1] (i.v, 3 μg/Kg), -0.8 mm/Hg; in data set [1] (i.v, 10 μg/Kg) it was -3.0 mm/Hg; in data set [1] (i.v, 30 μg/Kg), -3.7 mm/Hg.

With `O=[N+]([O-])OCC1COc2ccc([N+](=O)[O-])c(O)c2O1` (stereo not drawn) [Compound A, 8-hydroxy-2-nitratomethyl-7-nitro-1,4-benzodioxane], the LD50 in the data set “Acute toxicity in mice” (intravenous administration) lay in the range of 200 to 250 mg/kg; in “Acute toxicity in mice” (oral administration) it was 500 to 1000 mg/kg. Besides, the “Max. increase in coronary blood flow” value is reported as 52.0% with coronary blood flow (1 μg/Kg, intravenous); 84.7% in the data set on coronary blood flow (3 μg/Kg, intravenous); 127.6% in the data set with coronary blood flow (10 μg/Kg, intravenous). The “dose range causing a marked and dose-dependent increase in coronary blood flow” value with coronary blood flow (setting [3]) is 0.001 to 0.01 mg/kg. The “effect on the coronary flow, potency relative to NG” value in the data set on coronary blood flow (intravenous, dogs, vs NG) is “about 3 times”. In data set [2] (Rattus norvegicus, intravenous administration, read-out: dose as small as which caused a marked hypotension), the minimal effective dose came out at 0.0003 mg/kg. Besides, in data set [2] (intraduodenal administration), the hypotension result is on record as “dose-dependent hypotension”. Besides, in data set [2] (intraduodenal, vs ISDN), the “hypotensive potency relative to ISDN” value is ~30 times. Further, the “hypotensive potency relative to NG” value in data set [2] (intraduodenal, vs NG) is on record as ~10 times. For the same compound, the “hypotensive potency relative to nicorandil” value in data set [2] (intraduodenal, vs nicorandil) is on record as “about 5 times”. The “potency to cause 30% decrease in mean aortic pressure relative to ISDN” value in data set [2] (intravenous, vs ISDN) came out at 250 times. In data set [2] (intravenous, vs NG), the “potency to cause 30% decrease in mean aortic pressure relative to NG” value came out at 5 times. Besides, the “potency to cause 30% decrease in mean aortic pressure relative to nicorandil” value in data set [2] (intravenous, vs nicorandil) worked out at 300 times. For the same compound, the “Max. change … Aortic” value in data set [1] (i.d, 30 μg/Kg) was -2 mm/Hg; in data set [1] (i.d, 100 μg/Kg), -15 mm/Hg; in data set [1] (i.d, 300 μg/Kg), -22 mm/Hg; in data set [1] (i.v, 1 μg/Kg) it was -23 mm/Hg; in data set [1] (i.v, 3 μg/Kg), -39.2 mm/Hg; in data set [1] (i.v, 10 μg/Kg), -44.2 mm/Hg. The “Max. change … Pulmonary” value in data set [1] (i.d, 30 μg/Kg) is reported as -1.5 mm/Hg; in data set [1] (i.d, 100 μg/Kg), -2.5 mm/Hg; in data set [1] (i.d, 300 μg/Kg) it was -3.5 mm/Hg; in data set [1] (i.v, 1 μg/Kg), -2.5 mm/Hg; in data set [1] (i.v, 3 μg/Kg), -3.2 mm/Hg; in data set [1] (i.v, 10 μg/Kg), -5.3 mm/Hg. For the same compound, the “reductions in aortic and pulmonary blood pressures” value in data set [1] (intraduodenal administration, dogs) is “dose-dependent reductions in aortic and pulmonary blood pressures”. The “potency (reductions in aortic and pulmonary blood pressures) relative to NG” value in data set [1] (intraduodenal, dogs, vs NG) is on record as “about 3 times”. For the same compound, the “reduction of aortic and pulmonary blood pressure” value in data set [1] (setting [3]) is “reduced aortic and pulmonary blood pressure dose-dependently”. Moreover, the “vasodilating effect on the arterial system (reduction in aortic blood pressure) relative to nicorandil” value in data set [1] (setting [4]) is on record as “about 3 times”. Besides, the “vasodilating effect on the venous system (reduction in pulmonary blood pressure) relative to nicorandil” value in data set [1] (setting [4]) is on record as “about 3 times”.
